Results reported in patent publication US20240082212A1, “USE OF MDMA FOR TREATMENT OF STRESS-RELATED DISORDERS” (priority 2022, published 2024).
Entries after “also recorded” stand apart in the source; their conditions may differ. Like-named read-outs stand apart in the source and are kept apart here.

Key:
Serotonin 5-HT2B = Serotonin 5-HT2B (Homo sapiens, UniProt P41595); experiment: Eurofins Panlabs radioligand binding panel, serotonin 5-HT2B
C57BL/6J mice = experiment: Head twitch response (HTR); assay type: in vivo, mouse; details: 3 mg/kg IP, 30 minutes after injection
In short: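 Male C57BL/6J mice with head-mounted magnets were given vehicle or test drug IP (0.1–10 mg/kg, salt-based dose, in saline; n=5-6/group). Head twitches were recorded by magnetometer coil for 30 minutes immediately after injection and classified by ResNet-50 features with SVM; treatments at least seven days apart.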

CD (Sprague Dawley) rats = experiment: Rat functional observation battery (FOB) neurobehavioral evaluation after cumulative SC dosing; assay type: in vivo
Method: The observations were assessed through a rat functional observation battery (FOB) and continuous physiological measurements on the day of cumulative dosing, which are provided in further detail below.
Methods. A total of 42 adult male CD® (Sprague Dawley) rats (Charles River Laboratories) were surgically implanted with DSI radiotelemetry devices by personnel at Charles River Laboratories Raleigh, NC, per their test site SOPs. Telemetry devices supported continuous recording of temperature, activity, blood pressure and heart rate. Telemeterized rats were shipped to the Charles River Laboratories testing facility (Mattawan, MI) and acclimated to the environment for at least 1 week prior to experimentation. Animals were pair-housed in solid bottom cages with nonaromatic bedding. On the dosing day, animals were singly housed and then returned to the paired cohort following the dosing/telemetry recording phase. Diet (Lab Diet® Certified Rodent Diet #5CR4) and tap water via an automatic water system were available ad libitum, except during designated procedures. Temperature and humidity were maintained according to the Testing Facility SOP. Animals were randomized into treatment groups using a standard, by weight, measured value randomization procedure. Body weight was determined for each rat prior to dosing.
As illustrated in the Table, a total of 36 rats were included in the study. The vehicle and 2 test article doses were administered in a volume of 1 mL/kg to each of 3 groups of n=12 telemeterized rats via subcutaneous injection four times on a given day, followed by neurobehavioral evaluations. This series was repeated 3 times on study. Each group received all 3 dose levels of the applicable test or control article in ascending order with a 1-week washout between dose levels.
Mortality/cage side clinical observations were conducted for all study animals at least twice daily beginning upon receipt through termination, except on days of receipt and termination where frequency was at least once daily. Detailed clinical observations were conducted for all study animals prior to each of the four cumulative doses in a series. Individual body weights were conducted for all study animals at transfer, prior to randomization, on the day of dosing on each of the 3 cycles of dosing. The body weights recorded at transfer and prior to randomization are not reported but are maintained in the study file. Veterinary care was available throughout the course of the study, and animals were examined by the veterinary staff as needed based on clinical signs or other changes. All animals were provided with HydroGel the night prior to their respective dosing days to potentially mitigate any animal welfare issues related to fluid loss/dehydration.
Neurobehavioral evaluations (blinded) were conducted for all study animals 1 hour following the last (4th) cumulative dose of the series. The neurobehavioral parameters evaluated included: activity measurements (arousal/alertness, posture/body carriage, stereotypy, rearing, and appearance), autonomic measurements (exophthalmus, lacrimation, erected fur, pupil response, salivation, defecation, and palpebral closure/ptosis), excitability measurements (vocalizations, startle response, ease of removal, handling reactivity, and convulsions), neuromuscular measurements (gait/mobility, grip strength/response, air righting reflex, tremor, and body tone), physiological measurements (respiration and body temperature), and sensorimotor measurements (touch response/tactile reflex and thermal response).

[1] = Rat plasma pharmacokinetics after cumulative (QID) SC injections; details: for Cmax: parent analyte (total MDMA after Rac-MDMA)
[2] = 1 h after last of 4 hourly SC injections, R-MDMA and racemic MDMA 10, 20 mg/kg/day, S-MDMA 5, 10 mg/kg/day
[3] = FOB, cumulative SC dosing, dose groups stated in the value
[4] = male rat plasma, parent analyte, QID SC, total 10 mg/kg/day
[5] = male rat plasma, parent analyte, QID SC, total 20 mg/kg/day

Chain of Serotonin 5-HT2B (P41595 whole entry): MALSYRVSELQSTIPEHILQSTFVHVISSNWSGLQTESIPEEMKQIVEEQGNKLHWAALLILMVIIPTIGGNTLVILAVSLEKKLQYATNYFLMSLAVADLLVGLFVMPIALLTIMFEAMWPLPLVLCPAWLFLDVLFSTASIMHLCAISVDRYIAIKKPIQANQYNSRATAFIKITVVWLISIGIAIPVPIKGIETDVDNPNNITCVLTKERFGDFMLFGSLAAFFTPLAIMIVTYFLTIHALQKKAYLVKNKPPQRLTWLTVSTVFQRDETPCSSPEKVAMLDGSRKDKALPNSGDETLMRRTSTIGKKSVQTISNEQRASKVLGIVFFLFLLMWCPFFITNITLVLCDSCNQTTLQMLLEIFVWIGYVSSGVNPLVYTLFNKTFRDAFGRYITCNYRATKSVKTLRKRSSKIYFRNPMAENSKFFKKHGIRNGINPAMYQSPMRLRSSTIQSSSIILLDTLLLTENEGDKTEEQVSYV

Q: What does the source list for `CNC(C)Cc1ccc2c(c1)OCO2` (single isomer, unassigned) [R-MDMA, R(−)-3,4-methylenedioxymethamphetamine]?
A: inhibition at 10 µM (Serotonin 5-HT2B; 10 uM, read-out: % inhibition of binding or activity): 79%; IC50 (Serotonin 5-HT2B; IC50, 10 half-log concentrations, 0.3 nM to 10 μM, duplicate): 1400 nM; Ki (Serotonin 5-HT2B; Ki, 10 half-log concentrations, 0.3 nM to 10 μM, duplicate): 890 nM; head twitch response (HTR) compared to control (vehicle) (C57BL/6J mice): increase in HTR; arousal/alertness and rearing (CD (Sprague Dawley) rats; [2]): dose-dependent decreases in arousal/alertness and rearing; ease of removal from the home cage and handling reactivity (excitability) (CD (Sprague Dawley) rats; [2]): Dose-dependent increased difficulty in removal from the home cage and increased handling reactivity; forelimb grip strength (CD (Sprague Dawley) rats; [2]): dose-dependent statistically significant decreases in forelimb grip strength; salivation and erected fur (autonomic) (CD (Sprague Dawley) rats; [2]): Dose-dependent increased salivation and erected fur; unkempt appearance (CD (Sprague Dawley) rats; [2]): increased incidence of unkempt appearance in a dose-dependent manner; stereotypies (mouth movements/weaving, circling/retropulsion, sniffing) (CD (Sprague Dawley) rats; 1 h after last of 4 hourly SC injections, highest doses: S-MDMA 10, racemic-MDMA 20 mg/kg/day, R-MDMA 10, 20 mg/kg/day): No stereotypical behaviors were reported; Rank Order Activity Measurement Effects (CD (Sprague Dawley) rats; [3]): S-MDMA (5 mg/kg/day) < R-MDMA (10 mg/kg/day) < Rac.-MDMA (10 mg/kg/day); also recorded: Rac.-MDMA (20 mg/kg/day) < S-MDMA (10 mg/kg/day) < R-MDMA (20 mg/kg/day); also recorded: R-MDMA (0 mg/kg/day) < R-MDMA (10 mg/kg/day) < R-MDMA (20 mg/kg/day); also recorded: Rac.-MDMA (20 mg/kg/day) < S-MDMA (10 mg/kg/day) < R-MDMA (10 mg/kg/day); Rank Order Autonomic Measurement Effects (CD (Sprague Dawley) rats; [3]): R-MDMA (10 mg/kg/day) < S-MDMA (5 mg/kg/day) < Rac.-MDMA (10 mg/kg/day); also recorded: R-MDMA (20 mg/kg/day) < S-MDMA (10 mg/kg/day) < Rac-MDMA (20 mg/kg/day); also recorded: R-MDMA (0 mg/kg/day) < R-MDMA (10 mg/kg/day) < R-MDMA (20 mg/kg/day); also recorded: R-MDMA (10 mg/kg/day) < S-MDMA (10 mg/kg/day) = Rac-MDMA (20 mg/kg/day); Rank Order Excitability Measurement Effects (CD (Sprague Dawley) rats; [3]): R-MDMA (10 mg/kg/day) < S-MDMA (5 mg/kg/day) < Rac.-MDMA (10 mg/kg/day); also recorded: R-MDMA (20 mg/kg/day) = S-MDMA (10 mg/kg/day) < Rac-MDMA (20 mg/kg/day); also recorded: R-MDMA (0 mg/kg/day) < R-MDMA (10 mg/kg/day) < R-MDMA (20 mg/kg/day); also recorded: R-MDMA (10 mg/kg/day) < S-MDMA (10 mg/kg/day) < Rac-MDMA (20 mg/kg/day); Rank Order Neuromuscular Measurement Effects (CD (Sprague Dawley) rats; [3]): R-MDMA (10 mg/kg/day) < S-MDMA (5 mg/kg/day) < Rac.-MDMA (10 mg/kg/day); also recorded: R-MDMA (20 mg/kg/day) = S-MDMA (10 mg/kg/day) < Rac-MDMA (20 mg/kg/day); also recorded: R-MDMA (0 mg/kg/day) < R-MDMA (10 mg/kg/day) < R-MDMA (20 mg/kg/day); also recorded: R-MDMA (10 mg/kg/day) < S-MDMA (10 mg/kg/day) < Rac-MDMA (20 mg/kg/day); Rank Order Physiological Measurement Effects (CD (Sprague Dawley) rats; [3]): R-MDMA (10 mg/kg/day) < S-MDMA (5 mg/kg/day) < Rac.-MDMA (10 mg/kg/day); also recorded: R-MDMA (20 mg/kg/day) < S-MDMA (10 mg/kg/day) = Rac-MDMA (20 mg/kg/day); also recorded: R-MDMA (0 mg/kg/day) = R-MDMA (10 mg/kg/day) = R-MDMA (20 mg/kg/day); also recorded: R-MDMA (10 mg/kg/day) < S-MDMA (10 mg/kg/day) = Rac-MDMA (20 mg/kg/day); Rank Order Sensorimotor Measurement Effects (CD (Sprague Dawley) rats; [3]): S-MDMA (5 mg/kg/day) < Rac-MDMA (10 mg/kg/day) < R-MDMA (10 mg/kg/day); also recorded: S-MDMA (10 mg/kg/day) < Rac-MDMA (20 mg/kg/day) < R-MDMA (20 mg/kg/day); also recorded: R-MDMA (0 mg/kg/day) < R-MDMA (10 mg/kg/day) < R-MDMA (20 mg/kg/day); thermal response times (CD (Sprague Dawley) rats; at levels at least two-fold that of vehicle-treated groups, 1 h after last of 4 hourly SC injections): Statistically significant increases in thermal response times; AUC(0-t) [1]: 11800 ng·h/mL; dose dependence of Cmax and AUC0-27 hr ([1]; dose increase from 10 to 20 mg/kg/day of the dosed test article, QID SC): approximately dose proportional manner; AUC0-27 hr/Dose [1, 4]: 420 *kg*ng/mL/mg; Cmax/Dose [1, 4]: 114 kg·ng/mL/mg; Tlast [1, 4]: 11 h; AUC0-27 hr/Dose [1, 5]: 590 *kg*ng/mL/mg; Cmax/Dose [1, 5]: 127 kg·ng/mL/mg; Tlast [1, 5]: 11 h; AUC(0-t) ([1]; male, Sprague-Dawley (CD), rat, plasma, sc, 10 mg/kg/day, AUC0-27 hr, male rat plasma, parent analyte, QID SC, total 10 mg/kg/day): 4200 ng·h/mL; AUC(0-t) ([1]; male, Sprague-Dawley (CD), rat, plasma, sc, 10 mg/kg/day, AUCTlast, male rat plasma, parent analyte, QID SC, total 10 mg/kg/day): 4160 ng·h/mL; Cmax ([1]; male, Sprague-Dawley (CD), rat, plasma, sc, 10 mg/kg/day, male rat plasma, QID SC, total 10 mg/kg/day of the test article): 1140 ng/mL; half-life ([1]; male, Sprague-Dawley (CD), rat, plasma, sc, 10 mg/kg/day, T1/2, male rat plasma, parent analyte, QID SC, total 10 mg/kg/day): 1.01 h; AUC(0-t) ([1]; male, Sprague-Dawley (CD), rat, plasma, sc, 20 mg/kg/day, AUCTlast, male rat plasma, parent analyte, QID SC, total 20 mg/kg/day): 11300 ng·h/mL; Cmax ([1]; male, Sprague-Dawley (CD), rat, plasma, sc, 20 mg/kg/day, male rat plasma, QID SC, total 20 mg/kg/day of the test article): 2550 ng/mL
